{
  "source": "patent EP4635500A1",
  "about": "“THERAPEUTIC AGENT FOR BACTERIAL INFECTION” (Sumitomo Pharma Co., Ltd., priority 2022, dated 2024)",
  "format_in_all_cases": "cell-based",
  "key": {"53 CRE and CPE strains": {"tested_on": "53 CRE and CPE strains", "assay": "MICrange, MIC50, MIC80, MIC90 for 53 bacterial isolates (Example 5, Table 5)"}, "[1]": {"tested_on": "Metallo-β-lactamase producing strains (N = 27)", "assay": "MIC50/MIC90 for carbapenemase-producing isolates (Example 5, Table 6)", "conditions": "metallo-β-lactamase-producing strains; combination: Compound A at a fixed concentration of 4 µg/mL; read-out: MIC90"}, "Enterobacterales": {"tested_on": "Enterobacterales", "assay": "MIC, broth microdilution, CDC/FDA Antibiotic Resistance Isolate Bank (Example 7, Tables 8, 11, 12)", "conditions": "for MIC50: read-out: MIC50; for MIC90: read-out: MIC90; for MIC: read-out: MIC"}, "[2]": {"conditions": "154 strains of Enterobacterales"}, "[3]": {"conditions": "carbapenemase-producing Enterobacterales, Metallo-β-lactamase (N = 47)"}, "[4]": {"conditions": "carbapenemase-producing Enterobacterales, Serine carbapenemase (N=61)"}},
  "note": "Like-named read-outs stand apart in the source and are kept apart here.",
  "data": [
    {"compound": "CN(C)c1cc(NC(=O)CNC(C)(C)C)c(O)c2c1C[C@H]1C[C@H]3[C@H](N(C)C)C(O)=C(C(N)=O)C(=O)[C@@]3(O)C(O)=C1C2=O", "note": "[Tigecycline, tigecycline]", "values": [
      {"measurement": "MIC90", "setting": "53 CRE and CPE strains; 53 CRE and CPE strains, read-out: MIC90", "result": 2, "unit": "µg/mL"},
      {"measurement": "MIC90", "setting": "53 CRE and CPE strains; 53 bacterial isolates", "result": 2, "unit": "µg/mL"},
      {"measurement": "MICrange", "setting": "53 CRE and CPE strains; 53 bacterial isolates", "result": "0.12 to 16", "unit": "µg/mL"},
      {"measurement": "MIC50", "setting": "53 CRE and CPE strains; 53 bacterial isolates, read-out: MIC50", "result": 0.5, "unit": "µg/mL"},
      {"measurement": "MIC80", "setting": "53 CRE and CPE strains; 53 bacterial isolates, read-out: MIC80", "result": 1, "unit": "µg/mL"},
      {"measurement": "MIC90", "setting": "[1]", "result": 4, "unit": "µg/mL"},
      {"measurement": "MICrange", "setting": "Enterobacterales; [2]", "result": "0.12 to 4", "unit": "µg/mL"},
      {"measurement": "MIC50", "setting": "Enterobacterales; [2]", "result": 0.5, "unit": "µg/mL"},
      {"measurement": "MIC80", "setting": "Enterobacterales; 154 strains of Enterobacterales, read-out: MIC80", "result": 1, "unit": "µg/mL"},
      {"measurement": "MIC90", "setting": "Enterobacterales; [2]", "result": 2, "unit": "µg/mL"},
      {"measurement": "MIC", "setting": "Enterobacterales; Enterobacter cloacae, Enterobacter cloacae complex, KUB No. 5661, AR Bank # 164", "result": 0.5, "unit": "µg/mL"},
      {"measurement": "MIC", "setting": "Enterobacterales; Enterobacter cloacae, KUB No. 5660, AR Bank # 163", "result": 4, "unit": "µg/mL"},
      {"measurement": "MIC", "setting": "Enterobacterales; Enterobacter cloacae, KUB No. 5761, AR Bank # 365", "result": 2, "unit": "µg/mL"},
      {"measurement": "MIC", "setting": "Enterobacterales; Enterobacter cloacae, KUB No. 5762, AR Bank # 366", "result": 2, "unit": "µg/mL"},
      {"measurement": "MIC", "setting": "Enterobacterales; Enterobacter cloacae, KUB No. 5763, AR Bank # 367", "result": 0.5, "unit": "µg/mL"},
      {"measurement": "MIC", "setting": "Enterobacterales; Enterobacter cloacae, KUB No. 5778, AR Bank # 432", "result": 1, "unit": "µg/mL"},
      {"measurement": "MIC", "setting": "Enterobacterales; Escherichia coli, KUB No. 5764, AR Bank # 368", "result": 0.25, "unit": "µg/mL"},
      {"measurement": "MIC", "setting": "Enterobacterales; Escherichia coli, KUB No. 5765, AR Bank # 369", "result": 0.25, "unit": "µg/mL"},
      {"measurement": "MIC", "setting": "Enterobacterales; Escherichia coli, KUB No. 5766, AR Bank # 370", "result": 0.25, "unit": "µg/mL"},
      {"measurement": "MIC", "setting": "Enterobacterales; Escherichia coli, KUB No. 5767, AR Bank # 371", "result": 0.25, "unit": "µg/mL"},
      {"measurement": "MIC", "setting": "Enterobacterales; Escherichia coli, KUB No. 5768, AR Bank # 372", "result": 0.5, "unit": "µg/mL"},
      {"measurement": "MIC", "setting": "Enterobacterales; Escherichia coli, KUB No. 5769, AR Bank # 373", "result": 0.5, "unit": "µg/mL"},
      {"measurement": "MIC", "setting": "Enterobacterales; Escherichia coli, KUB No. 5770, AR Bank # 374", "result": 0.5, "unit": "µg/mL"},
      {"measurement": "MIC", "setting": "Enterobacterales; Escherichia coli, KUB No. 5774, AR Bank # 378", "result": 0.25, "unit": "µg/mL"},
      {"measurement": "MIC", "setting": "Enterobacterales; Escherichia coli, KUB No. 5779, AR Bank # 433", "result": 0.5, "unit": "µg/mL"},
      {"measurement": "MIC", "setting": "Enterobacterales; Escherichia coli, KUB No. 5780, AR Bank # 434", "result": 0.5, "unit": "µg/mL"},
      {"measurement": "MIC", "setting": "Enterobacterales; Escherichia coli, KUB No. 5781, AR Bank # 435", "result": 0.5, "unit": "µg/mL"},
      {"measurement": "MIC", "setting": "Enterobacterales; Escherichia, KUB No. 57, AR Bank # 436 (row cut off)", "result": 0.5, "unit": "µg/mL"},
      {"measurement": "MIC", "setting": "Enterobacterales; Klebsiella aerogenes, Enterobacter aerogenes, KUB No. 5777, AR Bank # 431", "result": 1, "unit": "µg/mL"},
      {"measurement": "MIC", "setting": "Enterobacterales; Klebsiella oxytoca, KUB No. 5771, AR Bank # 375", "result": 0.5, "unit": "µg/mL"},
      {"measurement": "MIC", "setting": "Enterobacterales; Klebsiella oxytoca, KUB No. 5776, AR Bank # 380", "result": 2, "unit": "µg/mL"},
      {"measurement": "MIC", "setting": "Enterobacterales; Klebsiella pnemnonine, KUB No. 5758, AR Bank # 362", "result": 1, "unit": "µg/mL"},
      {"measurement": "MIC", "setting": "Enterobacterales; Klebsiella pneumoniae, KUB No. 5757, AR Bank # 361", "result": 1, "unit": "µg/mL"},
      {"measurement": "MIC", "setting": "Enterobacterales; Klebsiella pneumoniae, KUB No. 5759, AR Bank # 363", "result": 0.5, "unit": "µg/mL"},
      {"measurement": "MIC", "setting": "Enterobacterales; Klebsiella pneumoniae, KUB No. 5760, AR Bank # 364", "result": 1, "unit": "µg/mL"},
      {"measurement": "MIC", "setting": "Enterobacterales; Klebsiella pneumoniae, KUB No. 5772, AR Bank # 376", "result": 1, "unit": "µg/mL"},
      {"measurement": "MIC", "setting": "Enterobacterales; Proteus mirabilis, KUB No. 5773, AR Bank # 377", "result": 4, "unit": "µg/mL"},
      {"measurement": "MIC", "setting": "Enterobacterales; Proteus mirabilis, KUB No. 5775, AR Bank # 379", "result": 0.5, "unit": "µg/mL"},
      {"measurement": "MIC50", "setting": "Enterobacterales; [3]", "result": 0.5, "unit": "µg/mL"},
      {"measurement": "MIC90", "setting": "Enterobacterales; [3]", "result": 2, "unit": "µg/mL"},
      {"measurement": "MIC50", "setting": "Enterobacterales; [4]", "result": 1, "unit": "µg/mL"},
      {"measurement": "MIC90", "setting": "Enterobacterales; [4]", "result": 2, "unit": "µg/mL"},
      {"measurement": "MIC90", "setting": "Enterobacterales; metallo-β-lactamase-producing strains of Enterobacterales", "result": 2, "unit": "µg/mL"}
    ]}
  ]
}
